Reference: US11999727B2 (Tango Therapeutics, Inc., priority 2020, dated 2024)

Assays:
[1] = tested on: HAP1 MTAP-intact cell line; assay: SDMA in-cell western assay, HAP1 MTAP-intact; assay type: cell-based; conditions: Homo sapiens, HAP1, SDMA in-cell western, HAP1 MTAP-intact; read-out: MTAP HAP1 intact IC50
How it was run: (§1)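 Isogenic HAP1 pair: the MTAP-intact line expresses endogenous MTAP, and the deleted line is MTAP-null. Symmetric dimethylarginine was detected by in-cell western and IC50 values derived for each line.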

[2] = molecular target: T1, PRMT5 (Homo sapiens, UniProt O14744); assay: PRMT5 biochemical IC50 assay with no cofactor; conditions: PRMT5, no cofactor
T1 construct: purchased Viva (custom protein)
T1 sequence (O14744 whole entry): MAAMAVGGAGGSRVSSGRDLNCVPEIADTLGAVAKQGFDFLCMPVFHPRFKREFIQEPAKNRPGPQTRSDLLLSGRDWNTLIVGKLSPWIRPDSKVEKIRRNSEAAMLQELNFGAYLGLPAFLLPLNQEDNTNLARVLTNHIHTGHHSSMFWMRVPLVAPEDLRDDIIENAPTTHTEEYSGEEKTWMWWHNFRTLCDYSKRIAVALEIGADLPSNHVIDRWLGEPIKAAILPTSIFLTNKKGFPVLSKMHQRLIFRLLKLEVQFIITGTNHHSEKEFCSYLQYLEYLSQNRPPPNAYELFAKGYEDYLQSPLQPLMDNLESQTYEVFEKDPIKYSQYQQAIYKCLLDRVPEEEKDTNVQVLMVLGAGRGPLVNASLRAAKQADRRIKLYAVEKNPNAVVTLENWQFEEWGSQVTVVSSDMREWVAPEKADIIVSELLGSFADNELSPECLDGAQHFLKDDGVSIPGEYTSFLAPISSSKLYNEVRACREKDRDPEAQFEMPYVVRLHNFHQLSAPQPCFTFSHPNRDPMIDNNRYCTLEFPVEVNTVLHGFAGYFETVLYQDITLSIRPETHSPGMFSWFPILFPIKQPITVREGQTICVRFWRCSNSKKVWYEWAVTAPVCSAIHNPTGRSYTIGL
T1 sequence (Q9BQA1 whole entry partner): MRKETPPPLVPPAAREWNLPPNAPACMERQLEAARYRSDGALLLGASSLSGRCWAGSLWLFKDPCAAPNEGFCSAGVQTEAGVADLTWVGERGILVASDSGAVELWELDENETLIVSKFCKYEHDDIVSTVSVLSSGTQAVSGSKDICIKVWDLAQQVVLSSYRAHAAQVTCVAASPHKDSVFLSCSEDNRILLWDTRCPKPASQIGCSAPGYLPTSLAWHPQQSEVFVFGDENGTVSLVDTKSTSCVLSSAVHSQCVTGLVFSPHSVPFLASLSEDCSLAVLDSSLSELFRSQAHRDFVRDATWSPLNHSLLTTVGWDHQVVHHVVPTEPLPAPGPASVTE
Excerpt: Table 1 indicates IC50 values (μM) against PRMT5 for exemplary compounds in the presence of SAM as cofactor, with no cofactor, and with MTA as cofactor, respectively (columns 4-6). […] Ki values can be calculated from the IC50 values as described in the Examples section. As detailed in the Examples section, for the assay performed in the presence of SAM, IC50=Ki×1.5 (Ki=IC50/1.5).

[3] = tested on: HAP1 MTAP-deleted cell line; assay: SDMA in-cell western assay, HAP1 MTAP-deleted; assay type: cell-based; conditions: for IC50: Homo sapiens, HAP1, SDMA in-cell western, HAP1 MTAP-deleted; for MTAP intact/deleted ratio: SDMA in-cell western
How it was run: as §1

[4] = molecular target: T1, PRMT5; assay: PRMT5 biochemical IC50 assay with MTA as cofactor; conditions: PRMT5, MTA as cofactor; read-out: MTA IC50
[5] = molecular target: T1, PRMT5; assay: PRMT5 biochemical IC50 assay with SAM as cofactor; conditions: PRMT5, SAM as cofactor; read-out: SAM IC50
[6] = tested on: HAP1 MTAP-deleted cell line; assay: Viability assay, MTAP-deleted cell line; assay type: cell-based; conditions: Homo sapiens, read-out: HAP1 MTAP deleted viability
Excerpt: Table 1 additionally indicates IC50 values in a viability assay for the MTAP-deleted cell line (column 10), indicating the effect of treatment with compound on cell survival.

[7] = read-out: HAP 1 MTAP deleted IC50
[8] = IC50 ratio HAP1 MTAP-intact / HAP1 MTAP-deleted
[9] = HAP1, viability assay, MTAP-deleted cell line
[10] = read-out: HAP1 MTAP deleted IC50
[11] = read-out: No Cofactor/ rel IC50
[12] = IC50 ratio HAP1 MTAP-intact vs HAP1 MTAP-deleted
[13] = HAP1, viability, HAP1 MTAP-deleted cell line

Compound	IC50 [1]	IC50 ([2]; read-out: No Cofactor/rel IC50)	IC50 [3, 7]	IC50 [4]	IC50 [5]	IC50 [3, 10]	IC50 [2, 11]	MTAP intact/deleted ratio [3, 8]	IC50 [6, 9]	MTAP intact/deleted ratio [3, 12]	IC50 [6, 13]	IC50 ([6]; HAP1, viability assay, HAP1 MTAP-deleted)
CCc1cc(NC(=O)C(=O)N2C[C@H](C)CC[C@H]2c2ccc(NC(C)=O)cc2)cnc1N (single isomer, unassigned) [Compound 893]	> 1000 nM	> 500 nM	> 1000 nM	> 500 nM	> 500 nM	–	–	B (an IC50 ratio greater than or equal to 3 fold but lower than 10 fold)	> 10000 nM	–	–	–
N#C[C@@H]1CCN(C(=O)C(=O)Nc2cncc(C(N)=O)c2)[C@H](c2ccccc2)C1 (single isomer, unassigned) [Compound 353]	> 1000 nM	> 500 nM	–	> 500 nM	> 500 nM	> 1000 nM	–	C (an IC50 ratio of less than 3 fold)	> 10000 nM	–	–	–
Cc1cc(C)cc([C@@H]2CC[C@@H](C)CN2C(=O)C(=O)Nc2cncc(C(N)=O)c2)c1 (racemic) [Compound 118, rac-5-{2-[(2R,5S)-2-(3,5-dimethylphenyl)-5-methylpiperidin-1-yl]-2-oxoacetamido}pyridine-3-carboxamide]	> 1000 nM	–	100 to 1000 nM	< 50 nM	50 to 500 nM	–	> 500 nM	A (an IC50 ratio greater than or equal to 10 fold)	> 10000 nM	–	–	–
C[C@H]1CC[C@H](c2ccc3sc(C(F)(F)F)nc3c2)N(C(=O)C(=O)Nc2cncc(C(N)=O)c2)C1 (single isomer, unassigned) [Compound 1023]	100 to 1000 nM	< 50 nM	< 100 nM	< 50 nM	50 to 500 nM	–	–	A (an IC50 ratio greater than or equal to 10 fold)	< 1000 nM	–	–	–
Cc1cc(NC(=O)C(=O)N2CCCCC2C23CC(C(F)(F)F)(C2)C3)cnc1N (stereo not drawn) [Compound 217, N-(6-amino-5-methyl-3-pyridyl)-2-oxo-2-[2-[3-(trifluoromethyl)-1-bicyclo[1.1.1]pentanyl]-1-piperidyl]acetamide]	> 1000 nM	> 500 nM	–	50 to 500 nM	50 to 500 nM	> 1000 nM	–	B (an IC50 ratio greater than or equal to 3 fold but lower than 10 fold)	> 10000 nM	–	–	–
C[C@@H]1CC[C@@H](c2ccc(N)nc2)N(C(=O)C(=O)Nc2cncc(C(N)=O)c2)C1 (single isomer, unassigned) [Compound 492]	> 1000 nM	< 50 nM	–	< 50 nM	50 to 500 nM	< 100 nM	–	A (an IC50 ratio greater than or equal to 10 fold)	1000 to 10000 nM	–	–	–
CO[C@H]1C[C@H](c2ccc3scnc3c2)N(C(=O)C(=O)Nc2cnc(N)c(C3CC3)c2)C[C@H]1C (single isomer, unassigned) [Compound 1370]	< 100 nM	–	< 100 nM	< 50 nM	50 to 500 nM	–	< 50 nM	A (an IC50 ratio greater than or equal to 10 fold)	–	–	< 1000 nM	–
CCc1cc(NC(=O)C(=O)N2C[C@H](C)CC[C@H]2c2ccn(-c3cc[nH]n3)n2)cnc1N (single isomer, unassigned) [Compound 931]	100 to 1000 nM	50 to 500 nM	< 100 nM	< 50 nM	50 to 500 nM	–	–	A (an IC50 ratio greater than or equal to 10 fold)	< 1000 nM	–	–	–
C[C@@H]1CC[C@H](c2ccnn2C)N(C(=O)C(=O)Nc2cncc(C(N)=O)c2)C1 (racemic) [Compound 72, 5-(2-(5-methyl-2-(1-methyl-1H-pyrazol-5-yl)piperidin-1-yl)-2-oxoacetamido)nicotinamide]	> 1000 nM	–	100 to 1000 nM	50 to 500 nM	50 to 500 nM	–	50 to 500 nM	A (an IC50 ratio greater than or equal to 10 fold)	> 10000 nM	–	–	–
COc1cc(OC)cc([C@@H]2CC[C@@H](C)CN2C(=O)C(=O)Nc2cncc(C(N)=O)c2)c1 (racemic) [Compound 428, rac-5-{2-[(2R,5S)-2-(3,5-Dimethoxyphenyl)-5-methylpiperidin-1-yl]-2-oxoacetamido}pyridine-3-carboxamide]	> 1000 nM	> 500 nM	–	50 to 500 nM	> 500 nM	100 to 1000 nM	–	A (an IC50 ratio greater than or equal to 10 fold)	> 10000 nM	–	–	–
Cc1cc(NC(=O)C(=O)N2CCCCC2c2cccs2)cnc1N (stereo not drawn) [Compound 9, N-(6-Amino-5-methylpyridin-3-yl)-2-oxo-2-(2-(thiophen-2-yl)piperidin-1-yl)acetamide]	> 1000 nM	–	100 to 1000 nM	< 50 nM	50 to 500 nM	–	50 to 500 nM	A (an IC50 ratio greater than or equal to 10 fold)	> 10000 nM	–	–	–
C[C@@H]1CC[C@@H](c2ccc(Cl)c(Cl)c2)N(C(=O)C(=O)Nc2cncc(C(N)=O)c2)C1 (single isomer, unassigned) [Compound 489]	> 1000 nM	> 500 nM	–	> 500 nM	> 500 nM	> 1000 nM	–	C (an IC50 ratio of less than 3 fold)	> 10000 nM	–	–	–

Continued, in another order:

IC50 [1]	IC50 ([2]; read-out: No Cofactor/rel IC50)	IC50 [3, 7]	IC50 [4]	IC50 [5]	IC50 [3, 10]	IC50 [2, 11]	Compound	MTAP intact/deleted ratio [3, 8]	IC50 [6, 9]	MTAP intact/deleted ratio [3, 12]	IC50 [6, 13]	IC50 ([6]; HAP1, viability assay, HAP1 MTAP-deleted)
100 to 1000 nM	< 50 nM	–	< 50 nM	50 to 500 nM	< 100 nM	–	CCc1cc(NC(=O)C(=O)N2C[C@@H](C)CC[C@@H]2c2ccc3nn([C@H]4CCN(C)C4)cc3c2)cnc1N (racemic) [Compound 1091, N-(6-Amino-5-ethyl-3-pyridyl)-2-oxo-2-[rac-(2R,5S)-5-methyl-2-[2-[rac-(3S)-1-methylpyrrolidin-3-yl]indazol-5-yl]-1-piperidyl]acetamide]	–	< 1000 nM	A (an IC50 ratio greater than or equal to 10 fold)	–	–
> 1000 nM	50 to 500 nM	< 100 nM	50 to 500 nM	50 to 500 nM	–	–	Cc1cc(NC(=O)C(=O)N2C[C@H](C)CC[C@H]2c2ccc3sc(N)nc3c2)cnc1C (racemic) [Compound 920, 2-[(2R,5S)-2-(2-amino-1,3-benzothiazol-5-yl)-5-methyl-1-piperidyl]-N-(5,6-dimethyl-3-pyridyl)-2-oxo-acetamide]	A (an IC50 ratio greater than or equal to 10 fold)	1000 to 10000 nM	–	–	–
< 100 nM	< 50 nM	–	< 50 nM	< 50 nM	< 100 nM	–	CCc1cc(NC(=O)C(=O)N2C[C@@H](C)CC[C@@H]2c2cccc(OC[C@@H]3CCN(C)C3)c2)cnc1N [Compound 1178, N-(6-amino-5-ethylpyridin-3-yl)-2-((2R,5S)-5-methyl-2-(3-(((R)-1-methylpyrrolidin-3-yl)methoxy)phenyl)piperidin-1-yl)-2-oxoacetamide]	–	< 1000 nM	A (an IC50 ratio greater than or equal to 10 fold)	–	–
< 100 nM	–	< 100 nM	< 50 nM	50 to 500 nM	–	< 50 nM	Cc1cc(NC(=O)C(=O)N2C[C@@H](C)CC[C@@H]2c2ccc3sc(CCN4CCOCC4)nc3c2)cnc1N [Compound 1387, N-(6-amino-5-methylpyridin-3-yl)-2-((2R,5S)-5-methyl-2-(2-(2-morpholinoethyl)benzo[d]thiazol-5-yl)piperidin-1-yl)-2-oxoacetamide]	B (an IC50 ratio greater than or equal to 3 fold but lower than 10 fold)	–	–	< 1000 nM	–
< 100 nM	< 50 nM	–	< 50 nM	< 50 nM	< 100 nM	–	COc1ncc(NC(=O)C(=O)N2C[C@@H](C)CC[C@@H]2c2ccc3sc([C@@H]4CCN(C)C[C@H]4C)nc3c2)cc1C(N)=O (racemic) [Compound 1127, 2-methoxy-5-[[2-oxo-2-[rac-(2R,5S)-5-methyl-2-[2-[rac-(3S,4R)-1,3-dimethyl-4-piperidyl]-1,3-benzothiazol-5-yl]-1-piperidyl]acetyl]amino]pyridine-3-carboxamide]	–	< 1000 nM	A (an IC50 ratio greater than or equal to 10 fold)	–	–
100 to 1000 nM	< 50 nM	–	< 50 nM	50 to 500 nM	< 100 nM	–	COc1ncc(NC(=O)C(=O)N2C[C@@H](C)CC[C@@H]2c2ccc3[nH]c(=O)ccc3c2)cc1C(N)=O (single isomer, unassigned) [Compound 807]	A (an IC50 ratio greater than or equal to 10 fold)	–	–	–	< 1000 nM
